Reference: patent US11077114B2, “Stabilized formulations of CNS compounds” (Supernus Pharmaceuticals, Inc., priority 2010, dated 2021)
Where a name gives a salt, the structure may show the parent alone.

Legend:
[1] = Molindone hydrochloride solubility profile at ambient conditions; format: physicochemical; settings: acidic to slightly acidic media versus neutral to slightly alkaline pH; FIG. 1
Source text: As a weakly basic drug, molindone is typically included into formulations in the form of a salt, such as chloride, sulfate, phosphate, monohydrogenphosphate, dihydrogenphosphate, bromide, iodide, acetate, propionate, decanoate, caprylate, formate, oxalate, malonate, succinate, fumarate, maleate, citrate, lactate, tartrate, methanesulfonate, mandelate, and the like.

[2] = pH dependent solution state stability in phosphate buffer at 37° C.; format: physicochemical; settings: 24 hour exposure
[3] = cited from earlier work

Row | solubility versus pH (in words) [1] | loss ([2]; pH 6.0 phosphate buffer) | loss ([2]; pH 6.8 phosphate buffer) | loss ([2]; pH 7.5 phosphate buffer) | SMILES | tmax ([3]; following oral administration) | plasma elimination half-life ([3]; oral dose)
1 | greater solubility | 3% | 6.4% | 7.5% | CCc1c(C)[nH]c2c1C(=O)C(CN1CCOCC1)CC2 (stereo not drawn) [Molindone, 3-Ethyl-6,7-dihydro-2-methyl-5-(morpholinomethyl)indol-4(5H)-one] | – | –
2 | – | – | – | – | CCc1c(C)[nH]c2c1C(=O)C(CN1CCOCC1)CC2 (stereo not drawn) [Molindone hydrochloride] | 1 to 1.5 h | about 2 hours
